Key:
Type in all cases: cell-based
[1] = target: T1, MCHR2 Q117(3.36)A (Homo sapiens, UniProt Q969V1, Q117A); assay: IP-One IP1 accumulation assay, MCHR2 Q117A; conditions: n = 3 in triplicate
T1 construct: expressed in transfected cells; host or cells: AD293
Excerpt: (§1) The gene sequences encoding human MCHR1 (residues 70‒405) and MCHR2 (residues 1‒331, with L256^6.40Y mutation) were subcloned into pFastBac vector (Invitrogen) with an N-terminal haemagglutinin signal peptide (HA) and a thermostabilized BRIL fusion, followed by a C-terminal 15-amino acid linker, a LgBiT subunit and two MBPs to facilitate receptor expression and stability. The Gαi construct was designed with dominant-negative mutations S47N, G203A, A326S, and E245A to decrease the affinity of nucleotide-binding and stable Gαβγ complex. The mini-Gαq construct was designed with the C-terminal α-helix (αH5) of Gαq, which is critical for G protein coupling selectivity. The core of the construct, known as the Ras domain, is derived from Gαs. This design choice was made to enable the binding of the nanobody Nb35, which stabilizes the complex for cryo-EM analysis. […]
(§2) IP1 accumulation assay was applied for the detection of the downstream Gαq signal of MCHR2 using the IP-One HTRF kit (Cisbio). […] Before measurement, the samples were incubated at RT for 30 min and measured with EnVision multi-plate reader (PerkinElmer).
(§3) Concentration–response curves were evaluated with a three-parameter logistic equation. The significance was determined with one-way ANOVA with Tukey’s test, and P < 0.05 vs wild type was considered statistically significant.

[2] = target: T2, MCHR1 I265(45.52)A (Homo sapiens, UniProt Q99705, I196A); assay: GloSensor cAMP assay, MCHR1 I265A; conditions: HEK293, mean ± S.E.M., n = 3 in triplicate
T2 construct: expressed in transfected cells; host or cells: HEK293
Excerpt: (§4) The gene sequences encoding human MCHR1 (residues 70‒405) and MCHR2 (residues 1‒331, with L256^6.40Y mutation) were subcloned into pFastBac vector (Invitrogen) with an N-terminal haemagglutinin signal peptide (HA) and a thermostabilized BRIL fusion, followed by a C-terminal 15-amino acid linker, a LgBiT subunit and two MBPs to facilitate receptor expression and stability. The Gαi construct was designed with dominant-negative mutations S47N, G203A, A326S, and E245A to decrease the affinity of nucleotide-binding and stable Gαβγ complex. The mini-Gαq construct was designed with the C-terminal α-helix (αH5) of Gαq, which is critical for G protein coupling selectivity. The core of the construct, known as the Ras domain, is derived from Gαs. This design choice was made to enable the binding of the nanobody Nb35, which stabilizes the complex for cryo-EM analysis. […] Rat Gβ1 was constructed with a N-terminal 16× His-tag for purification and a C-terminal HiBiT to form a NanoBiT with LgBiT. […] The wild-type and mutants of MCHR1 and MCHR2 were constructed into the pcDNA6.0 vector […] for functional assays.
(§5) GloSensor cAMP assay was used to detect the downstream Gαi signal of MCHR1 using GloSensor cAMP Reagent (Promega).

[3] = target: T3, MCHR2 G96(ECL1)A (Homo sapiens, UniProt Q969V1, G96A); assay: IP-One IP1 accumulation assay, MCHR2 G96A; conditions: n = 3 in triplicate
T3 construct: expressed in transfected cells; host or cells: AD293
Excerpt: as §1, §2, §3

[4] = target: T4, MCHR2 D179(ECL2)A (Homo sapiens, UniProt Q969V1, D179A); assay: IP-One IP1 accumulation assay, MCHR2 D179A; conditions: n = 3 in triplicate
T4 construct: expressed in transfected cells; host or cells: AD293
Excerpt: as §1, §2, §3

[5] = target: T5, MCHR2 P280(ECL3)A (Homo sapiens, UniProt Q969V1, P280A); assay: IP-One IP1 accumulation assay, MCHR2 P280A; conditions: n = 3 in triplicate
T5 construct: expressed in transfected cells; host or cells: AD293
Excerpt: as §1, §2, §3

[6] = target: T6, MCHR2 Y288(7.35)A (Homo sapiens, UniProt Q969V1, Y288A); assay: IP-One IP1 accumulation assay, MCHR2 Y288A; conditions: n = 3 in triplicate
T6 construct: expressed in transfected cells; host or cells: AD293
Excerpt: as §1, §2, §3

[7] = target: T7, MCHR1 F161(2.53)A (Homo sapiens, UniProt Q99705, F92A); assay: GloSensor cAMP assay, MCHR1 F161A; conditions: HEK293, mean ± S.E.M., n = 3 in triplicate
T7 construct: expressed in transfected cells; host or cells: HEK293
Excerpt: as §4, §5

[8] = target: T8, MCHR2 V194(5.35)A (Homo sapiens, UniProt Q969V1, V194A); assay: IP-One IP1 accumulation assay, MCHR2 V194A; conditions: n = 3 in triplicate
T8 construct: expressed in transfected cells; host or cells: AD293
Excerpt: as §1, §2, §3

[9] = target: T9, MCHR2 F186(45.52)A (Homo sapiens, UniProt Q969V1, F186A); assay: IP-One IP1 accumulation assay, MCHR2 F186A; conditions: AD293, mean ± S.E.M., n = 3 in triplicate
T9 construct: expressed in transfected cells; host or cells: AD293
Excerpt: as §1, §2, §3

[10] = target: T10, MCHR2 Q92(2.63)A (Homo sapiens, UniProt Q969V1, Q92A); assay: IP-One IP1 accumulation assay, MCHR2 Q92A; conditions: n = 3 in triplicate
T10 construct: expressed in transfected cells; host or cells: AD293
Excerpt: as §1, §2, §3

[11] = target: T11, MCHR1 Q196(3.36)A (Homo sapiens, UniProt Q99705, Q127A); assay: GloSensor cAMP assay, MCHR1 Q196A; conditions: HEK293, mean ± S.E.M., n = 3 in triplicate
T11 construct: expressed in transfected cells; host or cells: HEK293
Excerpt: as §4, §5

[12] = target: T12, MCHR2 F177(ECL2)A (Homo sapiens, UniProt Q969V1, F177A); assay: IP-One IP1 accumulation assay, MCHR2 F177A; conditions: n = 3 in triplicate
T12 construct: expressed in transfected cells; host or cells: AD293
Excerpt: as §1, §2, §3

[13] = target: T13, MCHR2 WT (Homo sapiens, UniProt Q969V1); assay: IP-One IP1 accumulation assay, MCHR2 WT (Gαq); conditions: AD293, IP-One HTRF, mean ± S.E.M.
T13 construct: expressed in transfected cells; host or cells: AD293
Excerpt: as §1, §2, §3

[14] = target: T14, MCHR1 Q171(2.63)A (Homo sapiens, UniProt Q99705, Q102A); assay: GloSensor cAMP assay, MCHR1 Q171A; conditions: HEK293, mean ± S.E.M., n = 3 in triplicate
T14 construct: expressed in transfected cells; host or cells: HEK293
Excerpt: as §4, §5

[15] = target: T15, MCHR2 A185(45.51)F (Homo sapiens, UniProt Q969V1, A185F); assay: IP-One IP1 accumulation assay, MCHR2 A185F; conditions: n = 3 in triplicate
T15 construct: expressed in transfected cells; host or cells: AD293
Excerpt: as §1, §2, §3

[16] = target: T16, MCHR2 S295(7.42)A (Homo sapiens, UniProt Q969V1, S295A); assay: IP-One IP1 accumulation assay, MCHR2 S295A; conditions: n = 3 in triplicate
T16 construct: expressed in transfected cells; host or cells: AD293
Excerpt: as §1, §2, §3

[17] = target: T17, MCHR1 D192(3.32)A (Homo sapiens, UniProt Q99705, D123A); assay: GloSensor cAMP assay, MCHR1 D192A; conditions: HEK293, mean ± S.E.M., n = 3 in triplicate
T17 construct: expressed in transfected cells; host or cells: HEK293
Excerpt: as §4, §5

[18] = AD293, IP-One HTRF, 37 °C 1 h, mean ± S.E.M., P < 0.0001 vs WT

T3 sequence (Q969V1 whole entry G96A): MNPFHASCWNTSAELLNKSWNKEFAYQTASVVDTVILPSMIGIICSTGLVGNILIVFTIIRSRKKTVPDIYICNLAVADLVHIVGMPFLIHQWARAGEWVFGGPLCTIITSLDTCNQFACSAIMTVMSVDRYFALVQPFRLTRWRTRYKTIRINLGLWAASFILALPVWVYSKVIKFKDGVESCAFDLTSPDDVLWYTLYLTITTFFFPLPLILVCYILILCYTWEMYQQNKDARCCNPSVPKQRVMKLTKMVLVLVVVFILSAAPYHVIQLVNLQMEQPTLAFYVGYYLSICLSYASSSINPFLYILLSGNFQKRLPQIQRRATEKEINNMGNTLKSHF
T5 sequence (Q969V1 whole entry P280A): as the sequence (Q969V1 whole entry G96A) above, with A96G, P280A counted along it
T13 sequence (Q969V1 whole entry): as the sequence (Q969V1 whole entry G96A) above, with A96G counted along it
T1 sequence (Q969V1 whole entry Q117A): as the sequence (Q969V1 whole entry G96A) above, with A96G, Q117A counted along it
T16 sequence (Q969V1 whole entry S295A): as the sequence (Q969V1 whole entry G96A) above, with A96G, S295A counted along it
T15 sequence (Q969V1 whole entry A185F): as the sequence (Q969V1 whole entry G96A) above, with A96G, A185F counted along it
T10 sequence (Q969V1 whole entry Q92A): as the sequence (Q969V1 whole entry G96A) above, with Q92A, A96G counted along it
T4 sequence (Q969V1 whole entry D179A): as the sequence (Q969V1 whole entry G96A) above, with A96G, D179A counted along it
T12 sequence (Q969V1 whole entry F177A): as the sequence (Q969V1 whole entry G96A) above, with A96G, F177A counted along it
T8 sequence (Q969V1 whole entry V194A): as the sequence (Q969V1 whole entry G96A) above, with A96G, V194A counted along it
T6 sequence (Q969V1 whole entry Y288A): as the sequence (Q969V1 whole entry G96A) above, with A96G, Y288A counted along it
T14 sequence (Q99705 whole entry Q102A): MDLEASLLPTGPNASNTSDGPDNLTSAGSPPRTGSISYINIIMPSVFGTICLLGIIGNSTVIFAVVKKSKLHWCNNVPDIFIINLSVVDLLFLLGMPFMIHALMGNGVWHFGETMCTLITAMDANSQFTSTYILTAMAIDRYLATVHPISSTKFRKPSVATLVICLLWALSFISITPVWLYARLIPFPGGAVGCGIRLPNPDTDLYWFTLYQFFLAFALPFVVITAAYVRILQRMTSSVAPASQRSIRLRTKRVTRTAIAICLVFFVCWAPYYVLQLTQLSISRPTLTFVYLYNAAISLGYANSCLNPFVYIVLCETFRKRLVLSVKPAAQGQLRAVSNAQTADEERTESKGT
T7 sequence (Q99705 whole entry F92A): as the sequence (Q99705 whole entry Q102A) above, with F92A, A102Q counted along it
T2 sequence (Q99705 whole entry I196A): as the sequence (Q99705 whole entry Q102A) above, with A102Q, I196A counted along it
T9 sequence (Q969V1 whole entry F186A): as the sequence (Q969V1 whole entry G96A) above, with A96G, F186A counted along it
T17 sequence (Q99705 whole entry D123A): as the sequence (Q99705 whole entry Q102A) above, with A102Q, D123A counted along it
T11 sequence (Q99705 whole entry Q127A): as the sequence (Q99705 whole entry Q102A) above, with A102Q, Q127A counted along it

CSCC[C@@H]1NC(=O)[C@@H](NC(=O)[C@H](CCCNC(=N)N)NC(=O)[C@H](CC(C)C)NC(=O)[C@H](CCSC)NC(=O)[C@H](CC(=O)O)NC(=O)[C@H](Cc2ccccc2)NC(=O)[C@@H](N)CC(=O)O)CSSC[C@@H](C(=O)N[C@@H](Cc2c[nH]c3ccccc23)C(=O)N[C@@H](CCC(N)=O)C(=O)N[C@H](C(=O)O)C(C)C)NC(=O)[C@@H]2CCCN2C(=O)[C@H](CCCNC(=N)N)NC(=O)[C@H](Cc2ccc(O)cc2)NC(=O)[C@H](C(C)C)NC(=O)[C@H](CCCNC(=N)N)NC(=O)CNC(=O)[C@H](CC(C)C)NC1=O [MCH, Melanin-concentrating hormone]
EC50 ([1]; AD293, IP-One HTRF, 37 °C 1 h, mean ± S.E.M., P 0.0352 vs WT): 10.7 nM | Emax ([1]; AD293, mean ± S.E.M.): 96 ± 2% | Emax [2]: 88 ± 3% | EC50 ([3]; AD293, IP-One HTRF, 37 °C 1 h, mean ± S.E.M., P 0.0012 vs WT): 15.5 nM | Emax ([3]; AD293, mean ± S.E.M.): 96% | EC50 [4, 18]: 1290 nM | Emax ([4]; AD293, mean ± S.E.M.): 85% | EC50 [5, 18]: 182 nM | Emax ([5]; AD293, mean ± S.E.M.): 90 ± 2% | EC50 [6, 18]: 1230 nM | Emax ([6]; AD293, mean ± S.E.M.): 84 ± 2% | Emax [7]: 124 ± 1% | EC50 [8, 18]: 33.1 nM | Emax ([8]; AD293, mean ± S.E.M.): 98 ± 1% | Emax [9]: 98% | EC50 [10, 18]: 9120 nM | Emax ([10]; AD293, mean ± S.E.M.): 25 ± 2% | Emax [11]: 97 ± 1% | EC50 [12, 18]: 3980 nM | Emax ([12]; AD293, mean ± S.E.M.): 97 ± 2% | EC50 ([13]; 37 °C 1 h, three independent experiments in triplicate): 3.16 nM | Emax ([13]; normalized by WT receptor, n = 3 in triplicate): 100% | Emax [14]: 57 ± 6% | EC50 [15, 18]: 12600 nM | Emax ([15]; AD293, mean ± S.E.M.): 96 ± 1% | EC50 [16, 18]: 234 nM | Emax ([16]; AD293, mean ± S.E.M.): 81 ± 2% | Emax [17]: 40 ± 7%

Source: PMC11074101 (Cell Discovery, 2024)
